Test results as given in ChEMBL document CHEMBL2203057, “Characterisation of [¹¹C]PR04.MZ in Papio anubis baboon: a selective high-affinity radioligand for quantitative imaging of the dopamine transporter” (Bioorg Med Chem Lett, 2012).

How the values were obtained:
[1] = molecular target: Sodium-dependent dopamine transporter (Rattus norvegicus, UniProt P23977); experiment: Binding affinity to rat DAT
[2] = molecular target: T1, Sodium-dependent dopamine transporter (Homo sapiens, UniProt Q01959); experiment: Binding affinity to DAT
T1 sequence (Q01959 whole entry): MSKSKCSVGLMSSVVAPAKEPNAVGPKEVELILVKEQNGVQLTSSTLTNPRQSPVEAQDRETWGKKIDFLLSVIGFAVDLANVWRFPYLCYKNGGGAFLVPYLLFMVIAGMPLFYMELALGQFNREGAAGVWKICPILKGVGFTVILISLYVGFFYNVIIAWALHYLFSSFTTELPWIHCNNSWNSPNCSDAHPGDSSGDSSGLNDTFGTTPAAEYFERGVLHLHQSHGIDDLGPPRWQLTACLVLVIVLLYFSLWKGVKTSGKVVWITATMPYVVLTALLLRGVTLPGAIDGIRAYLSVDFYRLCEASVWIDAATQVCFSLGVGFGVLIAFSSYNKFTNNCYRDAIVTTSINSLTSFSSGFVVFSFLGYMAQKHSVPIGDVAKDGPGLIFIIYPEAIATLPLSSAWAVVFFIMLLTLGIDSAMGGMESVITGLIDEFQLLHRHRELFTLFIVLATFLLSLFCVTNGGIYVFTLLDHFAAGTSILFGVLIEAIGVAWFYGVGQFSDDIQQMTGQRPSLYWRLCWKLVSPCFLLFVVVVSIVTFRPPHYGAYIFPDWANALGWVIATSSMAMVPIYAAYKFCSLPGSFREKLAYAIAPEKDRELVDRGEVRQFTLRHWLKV

[3] = Drug distribution in Papio anubis putamen assessed as drug efflux constant at 137.4 +/- 66.8 MBq; type: ADME, tissue-based
[4] = Drug distribution in Papio anubis caudate nucleus assessed as drug efflux constant at 137.4 +/- 66.8 MBq; type: ADME, tissue-based
[5] = Drug distribution in Papio anubis ventral striatum assessed as drug efflux constant at 137.4 +/- 66.8 MBq; type: ADME, tissue-based
[6] = Drug distribution in Papio anubis midbrain assessed as drug efflux constant at 137.4 +/- 66.8 MBq; type: ADME, tissue-based
[7] = Drug distribution in Papio anubis cerebellum assessed as drug efflux constant at 137.4 +/- 66.8 MBq; type: ADME, tissue-based
[8] = Drug distribution in Papio anubis putamen assessed as drug influx constant at 137.4 +/- 66.8 MBq; type: ADME, tissue-based
[9] = Drug distribution in Papio anubis caudate nucleus assessed as drug influx constant at 137.4 +/- 66.8 MBq; type: ADME, tissue-based
[10] = Drug distribution in Papio anubis ventral striatum assessed as drug influx constant at 137.4 +/- 66.8 MBq; type: ADME, tissue-based
[11] = Drug distribution in Papio anubis midbrain assessed as drug influx constant at 137.4 +/- 66.8 MBq; type: ADME, tissue-based
[12] = Drug distribution in Papio anubis cerebellum assessed as drug influx constant at 137.4 +/- 66.8 MBq; type: ADME, tissue-based
[13] = In vivo binding affinity to DAT in Papio anubis putamen assessed as binding potential at 137.4 +/- 66.8 MBq; type: ADME, organism-based
[14] = In vivo binding affinity to DAT in Papio anubis caudate nucleus assessed as binding potential at 137.4 +/- 66.8 MBq; type: ADME, organism-based
[15] = In vivo binding affinity to DAT in Papio anubis ventral striatum assessed as binding potential at 137.4 +/- 66.8 MBq; type: ADME, organism-based
[16] = In vivo binding affinity to DAT in Papio anubis midbrain assessed as binding potential at 137.4 +/- 66.8 MBq; type: ADME, organism-based
[17] = In vivo binding affinity to DAT in Papio anubis cerebellum assessed as binding potential at 137.4 +/- 66.8 MBq; type: ADME, organism-based
Nucleic Acid = experiment: Ratio of drug level in midbrain to cerebellum in Papio anubis midbrain at 137.4 +/- 66.8 MBq measured 90 mins post dose; type: ADME; conditions: 1.5 h
[18] = Stability in Sprague-Dawley rat brain assessed as intact compound level measured 60 mins post dose by HPLC; type: ADME, tissue-based; conditions: read-out: Stability
[19] = Stability in Papio anubis plasma assessed as intact compound level at 137.4 +/- 66.8 MBq measured 30 mins post dose; type: ADME, cell-free; conditions: read-out: Stability
[20] = Drug uptake in Papio anubis midbrain at 137.4 +/- 66.8 MBq measured 60 mins post dose co-treated with DAT ligand [18F]PR04.MZ by dynamic PET scanning method; type: ADME, tissue-based; conditions: 1 h
[21] = Drug uptake in Papio anubis caudate nucleus at 137.4 +/- 66.8 MBq measured 60 mins post dose co-treated with DAT ligand [18F]PR04.MZ by dynamic PET scanning method; type: ADME, tissue-based; conditions: 1 h
[22] = Drug uptake in Papio anubis putamen at 137.4 +/- 66.8 MBq measured 60 mins post dose co-treated with DAT ligand [18F]PR04.MZ by dynamic PET scanning method; type: ADME, tissue-based; conditions: 1 h
[23] = Drug uptake in Papio anubis midbrain at 137.4 +/- 66.8 MBq measured 60 mins post dose co-treated with 1.5 mg/kg DAT ligand GBR12909 by dynamic PET scanning method; type: ADME, organism-based; set-up: dose 1.5 mg/kg; conditions: in vivo, 1 h
[24] = Drug uptake in Papio anubis caudate nucleus at 137.4 +/- 66.8 MBq measured 60 mins post dose co-treated with 1.5 mg/kg DAT ligand GBR12909 by dynamic PET scanning method; type: ADME, organism-based; set-up: dose 1.5 mg/kg; conditions: in vivo, 1 h
[25] = Drug uptake in Papio anubis putamen at 137.4 +/- 66.8 MBq measured 60 mins post dose co-treated with 1.5 mg/kg DAT ligand GBR12909 by dynamic PET scanning method; type: ADME, organism-based; set-up: dose 1.5 mg/kg; conditions: in vivo, 1 h
[26] = Drug uptake in Papio anubis mid brain at 137.4 +/- 66.8 MBq measured 90 mins post dose by dynamic PET scanning method; type: ADME, tissue-based, Midbrain; conditions: 1.5 h
[27] = Drug uptake in Papio anubis mid brain at 137.4 +/- 66.8 MBq measured 45 mins post dose by dynamic PET scanning method; type: ADME, tissue-based, Midbrain; conditions: 0.75 h
[28] = Drug uptake in Papio anubis mid brain at 137.4 +/- 66.8 MBq measured 3.5 mins post dose by dynamic PET scanning method; type: ADME, tissue-based, Midbrain
[29] = Drug uptake in Papio anubis ventral striatum at 137.4 +/- 66.8 MBq measured 90 mins post dose by dynamic PET scanning method; type: ADME, tissue-based; conditions: 1.5 h
[30] = Drug uptake in Papio anubis ventral striatum at 137.4 +/- 66.8 MBq measured 45 mins post dose by dynamic PET scanning method; type: ADME, tissue-based; conditions: 0.75 h
[31] = Drug uptake in Papio anubis ventral striatum at 137.4 +/- 66.8 MBq measured 7.5 +/- 0.5 mins post dose by dynamic PET scanning method; type: ADME, tissue-based
[32] = Drug uptake in Papio anubis striatum assessed per 100 ml at 137.4 +/- 66.8 MBq measured 180 mins post dose by dynamic PET scanning method; type: ADME, tissue-based; conditions: 3 h
[33] = Drug uptake in Papio anubis striatum assessed per 100 ml at 137.4 +/- 66.8 MBq measured 90 mins post dose by dynamic PET scanning method; type: ADME, tissue-based; conditions: 1.5 h
[34] = Drug uptake in Papio anubis striatum assessed per 100 ml at 137.4 +/- 66.8 MBq measured 25 +/- 2.5 mins post dose by dynamic PET scanning method; type: ADME, tissue-based
Brain = experiment: Drug uptake in Papio anubis whole brain assessed per 100 ml at 137.4 +/- 66.8 MBq measured 3 +/- 0.5 mins post dose by dynamic PET scanning method; type: ADME, tissue-based
[35] = Unbound fraction in Papio anubis plasma at 137.4 +/- 66.8 MBq; type: ADME, cell-free
[36] = Drug uptake in Papio anubis putamen assessed per 100 ml at 137.4 +/- 66.8 MBq measured 25 +/- 2.5 mins post dose by dynamic PET scanning method; type: ADME, tissue-based
[37] = Drug uptake in Papio anubis caudate nucleus assessed per 100 ml at 137.4 +/- 66.8 MBq measured 25 mins post dose by dynamic PET scanning method; type: ADME, tissue-based
[38] = Lipophilicity, log D of the compound at pH 7.4 by HPLC; type: physicochemical; conditions: buffer
[39] = molecular target: T2, Sodium-dependent noradrenaline transporter (Homo sapiens, UniProt P23975); experiment: Displacement of [3H]nisoxetine from human NET expressed in HEK293 cells; type: cell-based
T2 sequence (P23975 whole entry): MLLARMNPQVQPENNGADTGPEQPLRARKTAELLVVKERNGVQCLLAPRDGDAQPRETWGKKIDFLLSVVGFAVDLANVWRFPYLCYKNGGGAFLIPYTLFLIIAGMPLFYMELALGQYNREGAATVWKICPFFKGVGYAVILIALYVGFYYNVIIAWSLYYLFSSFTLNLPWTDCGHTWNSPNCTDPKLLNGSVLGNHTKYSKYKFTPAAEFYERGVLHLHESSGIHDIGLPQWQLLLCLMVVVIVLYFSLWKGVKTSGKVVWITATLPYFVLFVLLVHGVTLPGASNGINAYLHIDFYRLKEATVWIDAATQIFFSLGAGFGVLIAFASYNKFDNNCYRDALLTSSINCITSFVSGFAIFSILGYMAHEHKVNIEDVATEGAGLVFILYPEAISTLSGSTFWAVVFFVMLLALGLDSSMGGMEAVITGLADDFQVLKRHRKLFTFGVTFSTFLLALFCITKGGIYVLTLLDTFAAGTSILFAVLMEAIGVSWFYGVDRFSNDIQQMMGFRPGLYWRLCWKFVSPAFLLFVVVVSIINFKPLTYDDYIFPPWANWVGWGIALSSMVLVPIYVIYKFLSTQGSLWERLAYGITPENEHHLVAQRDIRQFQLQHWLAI

[40] = molecular target: T2, Sodium-dependent noradrenaline transporter; experiment: Displacement of [3H]NE from human NET expressed in HEK293 cells; type: cell-based
[41] = molecular target: T3, Sodium-dependent serotonin transporter (Homo sapiens, UniProt P31645); experiment: Displacement of [3H]citalopram from human SERT expressed in HEK293 cells; type: cell-based
T3 sequence (P31645 whole entry): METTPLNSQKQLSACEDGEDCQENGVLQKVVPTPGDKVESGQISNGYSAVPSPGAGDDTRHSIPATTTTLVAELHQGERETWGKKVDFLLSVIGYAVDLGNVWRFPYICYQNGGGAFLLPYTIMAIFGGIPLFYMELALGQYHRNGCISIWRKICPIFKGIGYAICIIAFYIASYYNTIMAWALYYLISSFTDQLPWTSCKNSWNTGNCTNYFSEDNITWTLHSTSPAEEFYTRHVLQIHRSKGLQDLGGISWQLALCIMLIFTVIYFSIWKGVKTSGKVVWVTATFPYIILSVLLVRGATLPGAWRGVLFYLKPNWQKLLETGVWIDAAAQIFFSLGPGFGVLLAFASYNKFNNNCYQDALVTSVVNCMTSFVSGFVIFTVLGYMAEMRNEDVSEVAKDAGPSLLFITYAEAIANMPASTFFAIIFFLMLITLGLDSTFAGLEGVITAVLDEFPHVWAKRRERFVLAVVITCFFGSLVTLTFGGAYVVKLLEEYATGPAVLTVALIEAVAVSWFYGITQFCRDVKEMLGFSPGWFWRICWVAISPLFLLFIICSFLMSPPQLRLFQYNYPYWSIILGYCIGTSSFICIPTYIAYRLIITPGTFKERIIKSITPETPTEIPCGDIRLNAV

[42] = molecular target: T1, Sodium-dependent dopamine transporter; experiment: Displacement of [3H]WIN35,428 from human DAT expressed in HEK293 cells; type: cell-based
[43] = molecular target: T3, Sodium-dependent serotonin transporter; experiment: Displacement of [3H]5-HT from human SERT expressed in HEK293 cells; type: cell-based
[44] = molecular target: T1, Sodium-dependent dopamine transporter; experiment: Displacement of [3H]DA from human DAT expressed in HEK293 cells; type: cell-based

Chain of Sodium-dependent dopamine transporter (Rattus norvegicus, UniProt P23977) (P23977 whole entry): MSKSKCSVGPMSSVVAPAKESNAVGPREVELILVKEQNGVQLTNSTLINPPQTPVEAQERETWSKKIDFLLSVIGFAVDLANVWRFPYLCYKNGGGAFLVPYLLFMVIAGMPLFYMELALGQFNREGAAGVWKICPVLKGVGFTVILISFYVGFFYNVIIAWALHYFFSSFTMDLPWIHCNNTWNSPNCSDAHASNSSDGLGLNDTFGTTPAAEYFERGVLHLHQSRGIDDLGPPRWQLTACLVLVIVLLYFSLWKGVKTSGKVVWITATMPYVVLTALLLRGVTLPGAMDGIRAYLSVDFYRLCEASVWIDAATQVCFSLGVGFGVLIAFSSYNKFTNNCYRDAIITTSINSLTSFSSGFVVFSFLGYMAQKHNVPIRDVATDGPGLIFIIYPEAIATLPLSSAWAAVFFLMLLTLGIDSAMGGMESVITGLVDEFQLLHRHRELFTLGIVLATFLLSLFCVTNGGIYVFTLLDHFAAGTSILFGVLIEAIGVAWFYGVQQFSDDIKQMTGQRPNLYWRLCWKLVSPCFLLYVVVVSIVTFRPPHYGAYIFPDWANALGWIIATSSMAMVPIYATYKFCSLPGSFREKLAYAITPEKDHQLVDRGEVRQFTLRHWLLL

COC(=O)[C@H]1[C@@H](c2ccc(C)cc2)C[C@@H]2CC[C@H]1N2C/C=C/CF
Kd [1]: 9 nM

COC(=O)[C@H]1[C@@H](c2ccc(Cl)cc2)C[C@@H]2CC[C@H]1N2CCF
Ki [2]: 8 nM

COC(=O)[C@H]1[C@@H](c2ccc(C)cc2)C[C@@H]2CC[C@H]1N2C/C=C/I
Kd [1]: 4 nM

Cc1ccc([C@H]2C[C@@H]3CC[C@H]([C@H]2C(=O)O[11CH3])N3CC#CCF)cc1
Activity [3]: 0.004 min⁻¹
Activity [4]: 0.004 min⁻¹
Activity [5]: 0.0076 min⁻¹
Activity [6]: 0.016 min⁻¹
Activity [7]: 0.036 min⁻¹
Activity [8]: 0.015 ml/cm3/min
Activity [9]: 0.017 ml/cm3/min
Activity [10]: 0.03 ml/cm3/min
Activity [11]: 0.064 ml/cm3/min
Activity [12]: 0.144 ml/cm3/min
Activity [13]: 36.8 ml/cm3
Activity [14]: 29.3 ml/cm3
Activity [15]: 8.2 ml/cm3
Activity [16]: 2.7 ml/cm3
Activity [17]: 0 ml/cm3
Ratio (Nucleic Acid): 4.6
remaining at 1 h [18]: > 95%
remaining at 0.5 h [19]: 39%
Drug uptake [20]: Not Active
Drug uptake [21]: Not Active
Drug uptake [22]: Not Active
Drug uptake [23]: Not Active
Drug uptake [24]: Not Active
Drug uptake [25]: Not Active
Drug uptake [26]: 0.8 %ID/ml
Drug uptake [27]: 1.3 %ID/ml
Drug uptake [28]: 2.8 %ID/ml
Drug uptake [29]: 2.55 %ID/ml
Drug uptake [30]: 3.1 %ID/ml
Drug uptake [31]: 3.8 %ID/ml
Drug uptake [32]: 4.8 %ID
Drug uptake [33]: 6.7 %ID
Drug uptake [34]: 7.6 %ID
Drug uptake (Brain): 26.1 %ID
Fu [35]: 4.4 %ID
Drug uptake [36]: 7.6 %ID
Drug uptake [37]: 6.7 %ID

COC(=O)[C@H]1[C@@H](c2ccc(C)cc2)C[C@@H]2CC[C@H]1N2CC#CCF
logD [38]: 2.7
IC50 [39]: 22.5 nM
IC50 [40]: 31 nM
IC50 [41]: 108 nM
IC50 [42]: 1.93 nM
IC50 [43]: 240 nM
IC50 [44]: 3.26 nM
